Measurements reported in US12540120B2, “Herbicidal compounds” (SYNGENTA CROP PROTECTION AG, priority 2019, dated 2026).

Key:
Type in all cases: in vivo
[1] = system: Amaranthus retoflexus (AMARE); test: B6 Pre-Emergence Efficacy—Test 3; details: pre-emergence application, 250 g/ha, evaluated after 13 days (Test 3)
Protocol: (§1) B6 Pre-Emergence Efficacy—Test 3 Seeds of a variety of test species were sown in standard soil in pots: Amaranthus retoflexus (AMARE), Setaria faberi (SETFA), Echinochloa crus-galli (ECHCG), Ipomoea hederacea (IPOHE), Zea Mays (ZEAMX), Abutilon theophrasti (ABUTH). After cultivation for one day (pre-emergence) under controlled conditions in a glasshouse (at 24/16° C., day/night; 14 hours light; 65% humidity), the plants were sprayed with an aqueous spray solution derived from the formulation of the technical active ingredient in acetone/water (50:50) solution containing 0.5% Tween 20 (polyoxyethelyene sorbitan monolaurate, CAS RN 9005-64-5). Compounds are applied at 250 g/ha. The test plants were then grown in a glasshouse under controlled conditions (at 24/16° C., day/night; 14 hours light; 65% humidity) and watered twice daily. After 13 days, the test is evaluated for the percentage damage caused to the plant. The biological activities are assessed on a five point scale (5=80-100%; 4=60-79%; 3=40-59%; 2=20-39%; 1=0-19%). A blank value in the table is indicative that the compound was not tested on that species.

[2] = system: Ipomoea hederacea (IPOHE); test: B6 Pre-Emergence Efficacy—Test 3; details: pre-emergence application, 250 g/ha, evaluated after 13 days (Test 3)
Protocol: as §1

[3] = system: Setaria faberi (SETFA); test: B6 Pre-Emergence Efficacy—Test 3; details: pre-emergence application, 250 g/ha, evaluated after 13 days (Test 3)
Protocol: as §1

[4] = system: Abutilon theophrasti (ABUTH); test: B6 Pre-Emergence Efficacy—Test 3; details: pre-emergence application, 250 g/ha, evaluated after 13 days (Test 3)
Protocol: as §1

[5] = system: Zea Mays (ZEAMX); test: B6 Pre-Emergence Efficacy—Test 3; details: pre-emergence application, 250 g/ha, evaluated after 13 days (Test 3)
Protocol: as §1

[6] = system: Echinochloa crus-galli (ECHCG); test: B6 Pre-Emergence Efficacy—Test 3; details: pre-emergence application, 250 g/ha, evaluated after 13 days (Test 3)
Protocol: as §1

[7] = system: Amaranthus retoflexus (AMARE); test: B3 Post-Emergence Efficacy—Test 3; details: post-emergence application, 250 g/ha, evaluated after 13 days (Test 3)
Protocol: (§2) B3 Post-Emergence Efficacy—Test 3 Seeds of a variety of test species are sown in standard soil in pots:—Amaranthus retoflexus (AMARE), Setaria faberi (SETFA), Echinochloa crus-galli (ECHCG), Ipomoea hederacea (IPOHE), Zea Mays (ZEAMX), Abutilon theophrasti (ABUTH). After 8 days cultivation (post-emergence) under controlled conditions in a glasshouse (at 24/16° C., day/night; 14 hours light; 65% humidity), the plants are sprayed with an aqueous spray solution derived from the formulation of the technical active ingredient in acetone/water (50:50) solution containing 0.5% Tween 20 (polyoxyethylene sorbitan monolaurate, CAS RN 9005-64-5). Compounds are applied at 250 g/ha. The test plants are then grown in a glasshouse under controlled conditions in a glasshouse (at 24/16° C., day/night; 14 hours light; 65% humidity) and watered twice daily. After 13 days, the test is evaluated for the percentage damage caused to the plant. The biological activities are assessed on a five point scale (5=80-100%; 4=60-79%; 3=40-59%; 2=20-39%; 1=0-19%). A blank value in the table is indicative that the compound was not tested on that species.

[8] = system: Ipomoea hederacea (IPOHE); test: B3 Post-Emergence Efficacy—Test 3; details: post-emergence application, 250 g/ha, evaluated after 13 days (Test 3)
Protocol: as §2

[9] = system: Setaria faberi (SETFA); test: B3 Post-Emergence Efficacy—Test 3; details: post-emergence application, 250 g/ha, evaluated after 13 days (Test 3)
Protocol: as §2

[10] = system: Abutilon theophrasti (ABUTH); test: B3 Post-Emergence Efficacy—Test 3; details: post-emergence application, 250 g/ha, evaluated after 13 days (Test 3)
Protocol: as §2

[11] = system: Zea Mays (ZEAMX); test: B3 Post-Emergence Efficacy—Test 3; details: post-emergence application, 250 g/ha, evaluated after 13 days (Test 3)
Protocol: as §2

[12] = system: Echinochloa crus-galli (ECHCG); test: B3 Post-Emergence Efficacy—Test 3; details: post-emergence application, 250 g/ha, evaluated after 13 days (Test 3)
Protocol: as §2

[13] = system: Amaranthus retoflexus (AMARE); test: B5 Pre-Emergence Efficacy—Test 2; details: 250 g/ha, evaluated after 13 days
Outline: (§3)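 Compounds are applied pre-emergence at 250 g/ha, one day after sowing, in an aqueous acetone/water spray carrying 0.5% Tween 20. Damage is assessed 13 days later and scored from 1 (0-19%) to 5 (80-100%).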

[14] = system: Solanum nigrum (SOLNI); test: B5 Pre-Emergence Efficacy—Test 2; details: 250 g/ha, evaluated after 13 days
Outline: as §3

[15] = system: Amaranthus retoflexus (AMARE); test: B2 Post-Emergence Efficacy—Test 2; details: post-emergence application, 250 g/ha, evaluated after 13 days (Test 2)
Outline: (§4)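 Damage rated 13 days after treatment on a 1–5 scale (1=0-19%, 5=80-100%). Compounds were applied at 250 g/ha in acetone/water (50:50) with 0.5% Tween 20 to 8-day-old seedlings, grown under glasshouse conditions of 24/16 °C day/night, 14 h light, 65% humidity.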

[16] = system: Ipomoea hederacea (IPOHE); test: B2 Post-Emergence Efficacy—Test 2; details: post-emergence application, 250 g/ha, evaluated after 13 days (Test 2)
Outline: as §4

[17] = system: Setaria faberi (SETFA); test: B2 Post-Emergence Efficacy—Test 2; details: post-emergence application, 250 g/ha, evaluated after 13 days (Test 2)
Outline: as §4

[18] = system: Lolium perenne (LOLPE); test: B2 Post-Emergence Efficacy—Test 2; details: post-emergence application, 250 g/ha, evaluated after 13 days (Test 2)
Outline: as §4

[19] = system: Echinochloa crus-galli (ECHCG); test: B2 Post-Emergence Efficacy—Test 2; details: post-emergence application, 250 g/ha, evaluated after 13 days (Test 2)
Outline: as §4

[20] = system: Solanum nigrum (SOLNI); test: B2 Post-Emergence Efficacy—Test 2; details: post-emergence application, 250 g/ha, evaluated after 13 days (Test 2)
Outline: as §4

[21] = system: Ipomoea hederacea (IPOHE); test: B5 Pre-Emergence Efficacy—Test 2; set-up: key: 5-point scale: 5=80-100%, 4=60-79%, 3=40-59%, 2=20-39%, 1=0-19% damage; details: 250 g/ha, evaluated after 13 days
Outline: as §3

[22] = system: Setaria faberi (SETFA); test: B5 Pre-Emergence Efficacy—Test 2; set-up: key: 5-point scale: 5=80-100%, 4=60-79%, 3=40-59%, 2=20-39%, 1=0-19% damage; details: 250 g/ha, evaluated after 13 days
Outline: as §3

[23] = system: Lolium perenne (LOLPE); test: B5 Pre-Emergence Efficacy—Test 2; set-up: key: 5-point scale: 5=80-100%, 4=60-79%, 3=40-59%, 2=20-39%, 1=0-19% damage; details: 250 g/ha, evaluated after 13 days
Outline: as §3

[24] = system: Echinochloa crus-galli (ECHCG); test: B5 Pre-Emergence Efficacy—Test 2; set-up: key: 5-point scale: 5=80-100%, 4=60-79%, 3=40-59%, 2=20-39%, 1=0-19% damage; details: 250 g/ha, evaluated after 13 days
Outline: as §3

Compound	percentage damage caused to the plant, five point scale, AMARE [1]	percentage damage caused to the plant, five point scale, IPOHE [2]	percentage damage caused to the plant, five point scale, SETFA [3]	percentage damage caused to the plant, five point scale, ABUTH [4]	percentage damage caused to the plant, five point scale, ZEAMX [5]	percentage damage caused to the plant, five point scale, AMARE [7]	percentage damage caused to the plant, five point scale, IPOHE [8]	percentage damage caused to the plant, five point scale, SETFA [9]	percentage damage caused to the plant, five point scale, ABUTH [10]	percentage damage caused to the plant, five point scale, ZEAMX [11]	Control of weed species after pre-emergence application, AMARE (percentage damage, five point scale) [13]	Control of weed species after pre-emergence application, SOLNI (percentage damage, five point scale) [14]	percentage damage caused to the plant, five point scale, AMARE [15]	percentage damage caused to the plant, five point scale, IPOHE [16]	percentage damage caused to the plant, five point scale, SETFA [17]	percentage damage caused to the plant, five point scale, LOLPE [18]	percentage damage caused to the plant, five point scale, ECHCG [19]	percentage damage caused to the plant, five point scale, SOLNI [20]	Control of weed species after pre-emergence application, IPOHE (percentage damage, five point scale) [21]	Control of weed species after pre-emergence application, SETFA (percentage damage, five point scale) [22]	other results
Cc1nn(C)c(=O)c(-c2c(F)ccc(Cl)c2CCc2ccc(C3CCC(C)O3)cc2)c1O (stereo not shown) [Compound A-1.380]	5 (5=80-100%)	4 (4=60-79%)	1 (1=0-19%)	4 (4=60-79%)	2 (2=20-39%)	4 (4=60-79%)	3 (3=40-59%)	3 (3=40-59%)	3 (3=40-59%)	2 (2=20-39%)	–	–	–	–	–	–	–	–	–	–	percentage damage caused to the plant, five point scale, ECHCG [6]: 0; percentage damage caused to the plant, five point scale, ECHCG [12]: 1 (1=0-19%)
CNS(=O)(=O)c1ccc(CCc2c(Cl)ccc(F)c2-c2c(O)c(C)nn(C)c2=O)cc1 [Compound A-1.390]	5 (5=80-100%)	5 (5=80-100%)	5 (5=80-100%)	5 (5=80-100%)	1 (1=0-19%)	5 (5=80-100%)	4 (4=60-79%)	5 (5=80-100%)	4 (4=60-79%)	1 (1=0-19%)	–	–	–	–	–	–	–	–	–	–	–
Cc1nn(C)c(=O)c(-c2c(F)ccc(Cl)c2CCc2ccc(S(N)(=O)=O)cc2)c1O [Compound A-1.391]	5 (5=80-100%)	2 (2=20-39%)	5 (5=80-100%)	2 (2=20-39%)	0	4 (4=60-79%)	3 (3=40-59%)	4 (4=60-79%)	2 (2=20-39%)	1 (1=0-19%)	–	–	–	–	–	–	–	–	–	–	–
Cc1nn(C)c(=O)c(-c2c(F)ccc(Cl)c2CCc2ccc(C(N)=O)cc2)c1O [Compound A-1.392]	5 (5=80-100%)	5 (5=80-100%)	5 (5=80-100%)	5 (5=80-100%)	2 (2=20-39%)	5 (5=80-100%)	3 (3=40-59%)	5 (5=80-100%)	4 (4=60-79%)	2 (2=20-39%)	–	–	–	–	–	–	–	–	–	–	percentage damage caused to the plant, five point scale, ECHCG [6]: 5 (5=80-100%)
Cc1nn(C)c(=O)c(-c2c(F)ccc(Cl)c2/C=C/c2ccc(OC(C)(C)C)cc2)c1OC(=O)C(C)C [Compound A-4.035]	–	–	–	–	–	–	–	–	–	–	0	0	1 (1=0-19%)	3 (3=40-59%)	0	0	0	3 (3=40-59%)	1 (1=0-19%)	0	Control of weed species after pre-emergence application, LOLPE (percentage damage, five point scale) [23]: 1 (1=0-19%); Control of weed species after pre-emergence application, ECHCG (percentage damage, five point scale) [24]: 1 (1=0-19%)
Cc1nn(C)c(=O)c(-c2c(F)ccc(Cl)c2/C=C/c2ccc(C#N)cc2)c1OC(=O)C(C)C [Compound A-4.036, [5-[3-Chloro-2-[(E)-2-(4-cyanophenyl)vinyl]-6-fluoro-phenyl]-1,3-dimethyl-6-oxo-pyridazin-4-yl] 2-methylpropanoate]	–	–	–	–	–	–	–	–	–	–	2 (2=20-39%)	5 (5=80-100%)	2 (2=20-39%)	4 (4=60-79%)	1 (1=0-19%)	3 (3=40-59%)	3 (3=40-59%)	5 (5=80-100%)	3 (3=40-59%)	0	Control of weed species after pre-emergence application, LOLPE (percentage damage, five point scale) [23]: 1 (1=0-19%); Control of weed species after pre-emergence application, ECHCG (percentage damage, five point scale) [24]: 1 (1=0-19%)
Cc1nn(C)c(=O)c(-c2c(F)ccc(Cl)c2/C=C/c2ccc(C3CC3)cc2)c1OC(=O)C(C)C [Compound A-4.038, [5-[3-chloro-2-[(E)-2-(4-cyclopropylphenyl)vinyl]-6-fluoro-phenyl]-1,3-dimethyl-6-oxo-pyridazin-4-yl] 2-methylpropanoate]	–	–	–	–	–	–	–	–	–	–	2 (2=20-39%)	1 (1=0-19%)	1 (1=0-19%)	2 (2=20-39%)	0	1 (1=0-19%)	1 (1=0-19%)	5 (5=80-100%)	0	0	Control of weed species after pre-emergence application, LOLPE (percentage damage, five point scale) [23]: 0; Control of weed species after pre-emergence application, ECHCG (percentage damage, five point scale) [24]: 0
